Literature values as cited in patent publication US20260166131A1, “METHOD FOR PROMOTING PATHOLOGICAL TDP-43 PROTEIN DEGRADATION, AND DRUG” (TALENGEN INTERNATIONAL LIMITED, priority 2022, published 2026).
Several values for one entry are separate records, joined by “and”; a condition that tells them apart may be missing. Equal entries are not always repeated. Where two headings read alike, the source gives them in different places.

Tested on: ALS patients
Conditions: for ALSFRS-R score before dosing: literature
[1] = Edaravone 6 months, intravenous injection
[2] = Riluzole 6 months, taking orally

Row | SMILES | ALSFRS-R score after dosing [1] | ALSFRS-R scoring change [1] | ALSFRS-R score before dosing (Edaravone) | ALSFRS-R score after dosing [2] | ALSFRS-R scoring change [2] | ALSFRS-R score before dosing (Riluzole)
1 | CC1=NN(c2ccccc2)C(=O)C1 [Edaravone] | 36.89 | −5.01±0.64 points and −5.01 points | 41.9 |  |  | 
2 | Nc1nc2ccc(OC(F)(F)F)cc2s1 [Riluzole] |  |  |  | 33.2 | −7.0+7.1 points and −7.0 points | 40.2
